US20250243174A1, “ANTITUMORAL COMPOUNDS” (PHARMA MAR, S.A., priority 2021, published 2025)
Where two headings read alike, the source gives them in different places.

How the values were obtained:
HT29 = experiment: SRB colorimetric cytotoxicity assay, HT29; type: cell-based; details: Homo sapiens, read-out: GI50 (M) HT29
From the text: (§1) The aim of this assay is to evaluate the in vitro cytostatic (ability to delay or arrest tumor cell growth) or cytotoxic (ability to kill tumor cells) activity of the samples being tested.
(§2) A colorimetric assay, using sulforhodamine B (SRB) reaction has been adapted to provide a quantitative measurement of cell growth and viability (using the technique developed by Skehan et al., J. Natl. Cancer Inst. 1990 and following the protocol detailed in V. Vichai and K. Kirtikara (2006) Nature Protoc. 1, 1112-1116.)
(§3) This form of assay employs 96-well cell culture microplates. All the cell lines used in this study were obtained from the American Type Culture Collection (ATCC), unless otherwise indicated, and derive from different types of human cancer.
(§4) Cells were maintained in Dulbecco's Modified Eagle Medium (DMEM) (for A549, HT-29 and MDA-MB-231) or RPMI (for PSN-1) supplemented with 10% Fetal Bovine Serum (FBS), 2 mM L-glutamine, 100 U/mL penicillin and 100 U/mL streptomycin at 37° C., 5% CO2 and 98% humidity. For the experiments, cells were harvested from subconfluent cultures using trypsinization and resuspended in fresh medium before counting and plating.
(§5) Cells were seeded in 96 well microtiter plates, at 5×10^3 cells per well in aliquots of 150 μL, and allowed to attach to the plate surface for 18 hours (overnight) in drug free medium. After that, one control (untreated) plate of each cell line was fixed (as described below) and used for time zero reference value. Culture plates were then treated with test compounds (50 μL aliquots of 4× concentrated compound stock solutions made in complete culture medium) using ten serial dilutions (concentrations ranging from […]) and triplicate cultures (final concentration of DMSO being 1%). After 72 hours treatment, the antitumor effect was measured by using the SRB methodology: Briefly, cells were washed twice with PBS, fixed for 15 min in 1% glutaraldehyde solution at room temperature, rinsed twice in PBS, and stained in 0.4% SRB solution for 30 min at room temperature. Cells were then rinsed several times with 1% acetic acid solution and air-dried at room temperature. SRB was then extracted in 10 mM trizma base solution and the absorbance measured in an automated spectrophotometric plate reader at 490 nm. Effects on cell growth and survival were estimated by applying the NCI algorithm (Boyd M R and Paull K D. Drug Dev. Res. 1995, 34, 91-104).
(§6) Using the mean±SD of triplicates, a dose-response curve was automatically generated using nonlinear regression analysis to a 4-parameter logistic curve. Three reference parameters were calculated (NCI algorithm) by automatic interpolation: GI50=compound concentration that produces […] cell growth inhibition, as compared to control cultures.

A549 = experiment: SRB colorimetric cytotoxicity assay, A549; type: cell-based; details: Homo sapiens, read-out: GI50 (M) A549
From the text: as §1, §2, §3, §4, §5, §6

MDA-MB-231 = experiment: SRB colorimetric cytotoxicity assay, MDA-MB-231; type: cell-based; details: Homo sapiens, read-out: GI50 (M) MDA-MB-231
From the text: as §1, §2, §3, §4, §5, §6

PSN-1 = experiment: SRB colorimetric cytotoxicity assay, PSN-1; type: cell-based; details: Homo sapiens, read-out: GI50 (M) PSN-1
From the text: as §1, §2, §3, §4, §5, §6

[1] = MTD (Maximum Tolerated Dose) determination; details: Athymic Nude-Fox1 nu/nu, mouse, in vivo; iv, single dose; female athymic nude mice
Method: (§7) Female Athymic Nude-Fox1 nu/nu mice (Envigo) were utilized for all experiments. Animals (N=10/cage) were housed in individually ventilated cages (Sealsafe Plus®, Techniplast S.P.A.), on a 12-hour light-dark cycle at 21-23° C. and 40-60% humidity. Mice were allowed free access to irradiated standard rodent diet (Tecklad 2914C) and sterilized water. Animals were acclimated for five days prior to being individually tattoo-identified. Animal protocols were reviewed and approved according to the regional Institutional Animal Care and Use Committees.
(§8) Mice were randomly allocated into experimental groups and intravenously administered, once for the MTD (Maximum Tolerated Dose) determination or one administration a week during three consecutive weeks, for the MTMD (Maximum Tolerated Multiple Dose) determination study. The animals were administered with white formulation or with compound dissolved in the experimental formulation at different concentrations. The volume administered was always 10 mL/kg. Once administered, animals were monitored for clinical signs of systemic toxicity, changes in body weight and mortality up to 14 days after the administration.

[2] = MTMD (Maximum Tolerated Multiple Dose) determination; type: in vivo; details: iv, Q7dx3; female athymic nude mice
Method: as §7, §8

| SMILES | GI50 (HT29; HT-29, 72 h) [M] | GI50 (A549; A549, 72 h) [M] | GI50 (MDA-MB-231; MDA-MB-231, 72 h) [M] | GI50 (PSN-1; PSN1, 72 h) [M] | MTD at 14 days [1] [mg/kg] | MTMD [2] [mg/kg] | GI50 (HT29; HT-29, 72 hours treatment, SRB) [M] | GI50 (A549; A549, 72 hours treatment, SRB) [M] | GI50 (MDA-MB-231; MDA-MB-231, 72 hours treatment, SRB) [M] | GI50 (PSN-1; PSN1, 72 hours treatment, SRB) [M] | MTD [1] [mg/kg] |
| --- | --- | --- | --- | --- | --- | --- | --- | --- | --- | --- | --- |
| COC1=CC[C@@H]([C@@H](C)/C=C(C)/C=C\C=C/C(=O)N[C@H](C(=O)N/C=C\C[C@H](C/C=C(\C)F)OC(N)=O)C(C)(C)C)OC1=O [Compound 2] | 1.31e-11 | 4.55e-11 | 4.87e-11 | 2.27e-11 | 2 | 2.0 |  |  |  |  |  |
| COC1=CC[C@@H]([C@@H](C)/C=C(C)/C=C\C=C/C(=O)N[C@H](C(=O)N/C=C\C[C@H](CC=C(C)C)OC(N)=O)C(C)(C)C)OC1=O [Compound 3] | 2.22e-11 | 5.98e-11 | 9.05e-11 | 1.43e-10 | 1 | 1.0 |  |  |  |  |  |
| C/C=C\C[C@@H](C/C=C\NC(=O)[C@@H](NC(=O)\C=C/C=C\C(C)=C\[C@H](C)[C@@H]1CC=C(OC)C(=O)O1)C(C)(C)C)OC(N)=O [PM060184, reference compound] |  |  |  |  |  | 16.0 | 8.3e-11 | 1.71e-10 | 2.07e-10 | 1.87e-10 | 16 |
